Values quoted from earlier work in patent US7867523B2, “Pharmaceutical composition” (priority 2008, dated 2011).

Legend:
influenza virus = conditions: administered six hours after infection and continued for twenty-four hours
[1] = system: immune cell types present in the blood; conditions: one gram daily for two weeks, patients
[2] = acute and long-term, animals, oral

Compound: Oc1ccc(C=Cc2cc(O)cc(O)c2)cc1 [resveratrol, Resveratrol]
- antiviral effect (restricting ability of the virus to replicate) (influenza virus): substantial

Compound: O=C1O[C@H]([C@@H](O)CO)C(O)=C1O [vitamin C, Ascorbic acid]
- interferon-gama production by T cells [1]: significantly more
- number of NK cells [1]: increased
- number of T cells [1]: remained the same

Compound: Arabinogalactan
- toxicity [2]: no evidence of toxicity
